Results from PubChem BioAssay (NCI).
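Five concentrations, 48 hours, 96-well plates. GI50 marks 50% less growth. TGI: concentration producing complete growth inhibition.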

Assays:
Assay in all cases: inhibition of tumour cell growth, NCI panel, 48 h
UACC-257 melanoma = tested on: UACC-257 melanoma
HCT-116 colon = tested on: HCT-116 colon
CAKI-1 renal = tested on: CAKI-1 renal
HT29 colon = tested on: HT29 colon
NCI-H460 lung = tested on: NCI-H460 lung
SNB-75 CNS = tested on: SNB-75 CNS
SK-MEL-2 melanoma = tested on: SK-MEL-2 melanoma
SR leukemia = tested on: SR leukemia
SF-539 CNS = tested on: SF-539 CNS
U251 CNS = tested on: U251 CNS
SF-268 CNS = tested on: SF-268 CNS
MOLT-4 leukemia = tested on: MOLT-4 leukemia
HOP-62 NSCLC = tested on: HOP-62 NSCLC
SF-295 CNS = tested on: SF-295 CNS
OVCAR-3 ovarian = tested on: OVCAR-3 ovarian
EKVX NSCLC = tested on: EKVX NSCLC
NCI-H226 lung = tested on: NCI-H226 lung
HOP-92 NSCLC = tested on: HOP-92 NSCLC
HS 578T breast = tested on: HS 578T breast
A549 NSCLC = tested on: A549 NSCLC
RXF 393 renal = tested on: RXF 393 renal
786-0 renal = tested on: 786-0 renal
UO-31 renal = tested on: UO-31 renal
HL-60(TB) leukemia = tested on: HL-60(TB) leukemia
DU-145 prostate = tested on: DU-145 prostate
COLO 205 colon = tested on: COLO 205 colon
HCT-15 colon = tested on: HCT-15 colon
PC-3 prostate = tested on: PC-3 prostate
MCF7 breast = tested on: MCF7 breast
T-47D breast = tested on: T-47D breast
MALME-3M melanoma = tested on: MALME-3M melanoma
UACC-62 melanoma = tested on: UACC-62 melanoma
IGROV1 ovarian = tested on: IGROV1 ovarian
HCC-2998 colon = tested on: HCC-2998 colon
CCRF-CEM leukemia = tested on: CCRF-CEM leukemia
MDA-MB-231 breast = tested on: MDA-MB-231 breast
BT-549 breast = tested on: BT-549 breast
TK-10 renal = tested on: TK-10 renal
OVCAR-5 ovarian = tested on: OVCAR-5 ovarian
KM12 colon = tested on: KM12 colon
NCI-H23 lung = tested on: NCI-H23 lung
OVCAR-4 ovarian = tested on: OVCAR-4 ovarian
RPMI-8226 leukemia = tested on: RPMI-8226 leukemia
SN12C renal = tested on: SN12C renal
OVCAR-8 ovarian = tested on: OVCAR-8 ovarian
SW-620 colon = tested on: SW-620 colon
ACHN renal = tested on: ACHN renal
SK-MEL-5 melanoma = tested on: SK-MEL-5 melanoma
A498 renal = tested on: A498 renal
NCI-H522 lung = tested on: NCI-H522 lung
LOX IMVI melanoma = tested on: LOX IMVI melanoma
K-562 leukemia = tested on: K-562 leukemia
SNB-19 CNS = tested on: SNB-19 CNS
SK-OV-3 ovarian = tested on: SK-OV-3 ovarian
SK-MEL-28 melanoma = tested on: SK-MEL-28 melanoma
M14 melanoma = tested on: M14 melanoma
MDA-MB-435 = tested on: MDA-MB-435
NCI/ADR-RES ovarian = tested on: NCI/ADR-RES ovarian

## OCc1cn(Cc2ccc(Cl)cc2)c2ccccc12
UACC-257 melanoma
  GI50: 0.22 µM
  TGI: 0.517 µM
HCT-116 colon
  GI50: 0.0393 µM
  TGI: 12 µM
CAKI-1 renal
  TGI: 2.15 µM
HT29 colon
  GI50: 1.35 µM
  TGI: 17.8 µM
NCI-H460 lung
  GI50: 0.124 µM
  TGI: 18.5 µM
SNB-75 CNS
  GI50: 4.52 µM
  TGI: 19.9 µM
SK-MEL-2 melanoma
  GI50: 0.986 µM
  TGI: 6.72 µM
SR leukemia
  GI50: 15.9 µM
  TGI: 71.7 µM
SF-539 CNS
  GI50: 11.5 µM
  TGI: 27.8 µM
U251 CNS
  GI50: 2.62 µM
  TGI: 22.6 µM
SF-268 CNS
  GI50: 12.3 µM
  TGI: 36.7 µM
MOLT-4 leukemia
  GI50: 19.6 µM
  TGI: 54 µM
HOP-62 NSCLC
  GI50: 0.84 µM
  TGI: 21.7 µM
SF-295 CNS
  GI50: 1.62 µM
  TGI: 32.9 µM
OVCAR-3 ovarian
  GI50: 0.495 µM
  TGI: 8.23 µM
EKVX NSCLC
  GI50: 21.1 µM
  TGI: 60 µM
NCI-H226 lung
  GI50: < 0.01 µM
  TGI: 0.106 µM
HOP-92 NSCLC
  GI50: 3.03 µM
  TGI: 19.7 µM
HS 578T breast
  GI50: 4.76 µM
  TGI: 25.6 µM
A549 NSCLC
  GI50: 2.64 µM
  TGI: 40.8 µM
RXF 393 renal
  GI50: 0.424 µM
  TGI: 4.44 µM
786-0 renal
  GI50: 2.51 µM
  TGI: 21.2 µM
UO-31 renal
  GI50: 1.66 µM
  TGI: 13 µM
HL-60(TB) leukemia
  GI50: 3.9 µM
  TGI: 21.4 µM
DU-145 prostate
  GI50: 8.11 µM
  TGI: 31.8 µM
COLO 205 colon
  GI50: 0.615 µM
  TGI: 6.89 µM
HCT-15 colon
  GI50: 3.44 µM
  TGI: 28.5 µM
PC-3 prostate
  GI50: 15 µM
  TGI: 47.1 µM
MCF7 breast
  GI50: 0.105 µM
  TGI: 9.02 µM
T-47D breast
  GI50: 0.0386 µM
  TGI: 0.55 µM
MALME-3M melanoma
  GI50: 8.68 µM
  TGI: 30.5 µM
UACC-62 melanoma
  GI50: 0.0565 µM
  TGI: 0.601 µM
IGROV1 ovarian
  GI50: < 0.0227 µM
  TGI: 0.709 µM
HCC-2998 colon
  GI50: 4.09 µM
  TGI: 20.3 µM
CCRF-CEM leukemia
  GI50: 2.2 µM
  TGI: 16.8 µM
MDA-MB-231 breast
  GI50: 6.02 µM
  TGI: 25.6 µM
BT-549 breast
  GI50: 3.65 µM
  TGI: 17.5 µM
TK-10 renal
  GI50: < 0.0115 µM
  TGI: 0.195 µM
OVCAR-5 ovarian
  GI50: < 0.01 µM
  TGI: 0.613 µM
KM12 colon
  GI50: 16.9 µM
  TGI: 38.1 µM
NCI-H23 lung
  GI50: 3.85 µM
  TGI: 21.1 µM
OVCAR-4 ovarian
  GI50: 0.281 µM
  TGI: 7.69 µM
RPMI-8226 leukemia
  GI50: 0.636 µM
  TGI: 5.23 µM
SN12C renal
  GI50: 4.66 µM
  TGI: 21.6 µM
OVCAR-8 ovarian
  GI50: 4.36 µM
  TGI: 40 µM
SW-620 colon
  GI50: 0.811 µM
  TGI: 22.9 µM
ACHN renal
  GI50: 3.57 µM
  TGI: 34.2 µM
SK-MEL-5 melanoma
  GI50: 4.59 µM
  TGI: 18.6 µM
A498 renal
  GI50: 0.0115 µM
  TGI: 0.0323 µM
NCI-H522 lung
  GI50: 3.21 µM
  TGI: 14.8 µM
LOX IMVI melanoma
  GI50: 4.26 µM
  TGI: 16.1 µM
K-562 leukemia
  GI50: 1.61 µM
  TGI: 25.4 µM
SNB-19 CNS
  GI50: 15.8 µM
  TGI: 64.5 µM
SK-OV-3 ovarian
  GI50: 2.88 µM
  TGI: 33.2 µM
SK-MEL-28 melanoma
  GI50: 15.1 µM
  TGI: 44 µM
M14 melanoma
  GI50: 5.95 µM
  TGI: 22.1 µM
MDA-MB-435
  GI50: 17.1 µM
  TGI: 43.9 µM
NCI/ADR-RES ovarian
  GI50: 8.41 µM
  TGI: 30.8 µM
